# Measured values as given in US7994125B2, “Stem cell factor for preventing chemotherapy-induced depletion of blood cells” (Istituto Superiore Di Sanita, priority 2003, dated 2011).
# How the values were obtained:
# [1] = tested on: megakaryocytic precursors; assay: Chemotherapy-induced cell death of megakaryocytic cells; assay type: cell-based; conditions: for sensitivity of mature polynucleated megakaryocytic precursors versus day 6 immature precursors: Etoposide 4 micromolar, Daunorubicin 0.5 micromolar or Vincristine 0.5 micromolar
# Method: Decreased platelet number is a common side effect of chemotherapy. In a separate set of experiments, the protective effect of SCF on chemotherapy-induced cell death was evaluated on megakaryocytic cells, which derive from hematopoietic stem and progenitor cells and give rise to platelets. […] We pretreated immature megakaryocytic precursors at day 4 of differentiation with SCF for 48 hours before exposure to chemotherapeutic agents. SCF was maintained during the exposure to chemotherapic agents.
# [2] = tested on: day 7 (pro/basophilic) erythroblasts
# Method: (§1) FIG. 1. Chemosensitivity of CD34^+ progenitors and erythroid precursors.
# (§2) FIG. 2. […] After 24 hours the percentage of cell death was determined by ethidium bromide/acridine orange staining.
# (§3) Adult peripheral blood human progenitor cell (HPC) purification and culture. Adult peripheral blood was obtained from male donors after their informed consent and the approval by the Committee for Human Studies. Human CD34^+ precursor cells were purified from peripheral blood by positive selection using the midi-MACS immunomagnetic separation system (Miltenyi Biotec, Bergisch Gladbach, Germany) according to the manufacturer's instructions. CD34^+ precursors were cultured in serum-free medium supplemented with 0.01 U/ml interleukin-3 (IL-3), 0.001 ng/ml GM-CSF and 3 U/ml Epo to induce unilineage erythroid differentiation. […] Cell viability was evaluated by ethidium bromide-acridine orange staining and fluorescence microscopy analysis.^15 The differentiation stage of erythroid precursor cells was evaluated by May-Grünwald-Giemsa staining and cytologic analysis. Ziegler B, Testa U, Condorelli G, Vitelli L, Valtieri M, Peschle C. Unilineage hematopoietic differentiation in bulk and single cell culture. Stem Cells. 1998; 16(suppl 1):51-73. For clonogenetic assay, 10^2 CD34^+ cells and 2×10^2 cells from day 5 or day 7 unilineage erythroid cultures were plated in duplicate in 0.9% methylcellulose containing 40% FCS and saturating concentrations of erythropoietin (3 U/mL), TPO (50 ng/mL), granulocyte macrophage-colony stimulating factor (GM-CSF; 10 ng/mL), M-CSF (250 U/mL), G-CSF (500 U/mL), IL-6 (10 ng/mL), stem cell factor (100 ng/mL), Flt3 ligand (100 ng/mL), and IL-3 (100 U/mL). Colonies were scored after 14 days of culture at 37° C. in a 5% CO2/5% O2/90% N2 humidified atmosphere.
# [3] = tested on: caspase 3, caspase 7 and caspase 8
# Method: as §2
# (§4) FIG. 4. […] After 48 hours, 4×10^4 cells were washed and replated in standard erythroid medium with or without 100 ng/ml SCF.
# Western blotting. For detection of caspases, protein extracts were prepared by resuspending cell pellets in 1% NP40 lysis buffer (20 mM Tris/HCl pH 7.2, 200 mM NaCl, 1% NP40) in the presence of 1 mM phenylmethylsulphonyl fluoride (PMSF) and 2 μg/ml each of leupeptin, aprotinin and pepstatin. Concentration of lysates was determined by the Bradford assay (Bio-Rad Laboratories, Richmond, Calif.) and equal amounts of proteins were used for SDS-PAGE. Samples were analyzed by standard immunoblot procedure and visualized by chemiluminescence (Super Signal West Pico Pierce, Rockford, Ill.). Quantification of protein expression levels was performed with the NIH IMAGE software version 1.62 (by Wayne Rasband, National Institutes of Health, Research Services Branch, NIMH).
# [4] = tested on: day 14 (orthochromatic) erythroblasts; assay: Chemosensitivity of day 14 erythroblasts, cell death by ethidium bromide/acridine orange staining; assay type: cell-based; conditions: 24 hours, 1.5 μg/ml cisplatin or 50 ng/ml camptothecin
# Excerpt: as §1
# (§5) Unilineage hematopoietic differentiation in bulk and single cell culture. Stem Cells. 1998; 16(suppl 1):51-73.
# (§6) Nature. […] Unilineage hematopoietic differentiation in bulk and single cell culture. Stem Cells. 1998; 16(suppl 1):51-73).
# CD34+ progenitors = assay: Chemosensitivity of CD34+ progenitors, cell death by ethidium bromide/acridine orange staining; assay type: cell-based, human; conditions: CD34+ cells; 24 hours; 1.5 μg/ml cisplatin or 50 ng/ml camptothecin; standard erythroid medium
# Excerpt: as §1, §5, §6
# CD34 positive cells = assay: Protection of proliferating CD34 positive cells from chemotherapeutic agents in vitro; assay type: cell-based
# Method: as §3
# day 7 erythroblasts = assay: Erythroblast recovery and expansion after removal of cisplatin; assay type: cell-based
# Method: as §4
# [5] = tested on: anti-apoptotic genes belonging to the Bcl-2 family and to the Notch family; assay: Expression of pro- and anti-apoptotic genes in SCF-treated erythroid precursor cells; assay type: cell-based, human
# Excerpt: In order to elucidate the mechanisms responsible for the protective effect of SCF from chemotherapy-induced cell death, we analysed the expression of pro- and anti-apoptotic genes in SCF-treated erythroid precursor cells. SCF induced an upregulation of anti-apoptotic genes belonging to the Bcl-2 family and to the Notch family, as well as an increase in the levels of several transcription factors involved in the control of cellular proliferation and survival.
# [6] = tested on: day 7 erythroid culture cells; assay: Clonogenetic assay of erythroid unilineage culture cells in semisolid medium; assay type: cell-based, human; conditions: two-days treatment with 100 ng/ml SCF (day 5 to day 7)
# Method: FIG. 5. […] (A) Clonogenetic assay of CD34^+ cells (day 0) or cells grown in liquid culture and subsequently plated in semisolid medium at day 5 or day 7 of erythroid differentiation. Control cells (day 5 and day 7 Epo) were cultivated in standard erythroid medium before the colony assay, whereas SCF-treated cells (day 7 Epo+SCF) received 100 ng/ml SCF from day 5 to day 7 of liquid culture. (B) Cytofluorimetric analysis of glycophorin A-positive cells in erythroid unilineage culture. Cells were analyzed after five (day 5) or seven days (day 7) of erythroid differentiation in standard erythroid medium (Epo) or in the same medium supplied with 100 ng/ml SCF starting from day 5 (Epo+SCF).
# as §5
# SCF supports the selective expansion of erythroid cells in unilineage culture conditions after treatment with chemotherapeutic agents. Theoretically, SCF may promote the growth of non-erythroid cells present in small numbers in erythroblastic cultures, and even specifically protect these contaminants from cytotoxic drugs, thus generating a post-chemotherapy population of non-erythroid cells. […]
# [7] = in vivo; cited from earlier work
# Bcl-2 and Bcl-XL = assay: Western blot analysis of Bcl-2 and Bcl-XL levels in day 7 erythroblasts; assay type: cell-based, human; conditions: erythroblasts treated for two days with 100 ng/ml SCF versus standard erythroid medium
# [8] = tested on: erythroid and granulocytic precursor cells, uncommitted CD34+ progenitors; assay: SCF treatment of purified hematopoietic progenitors and precursors exposed to antineoplastic agents; assay type: cell-based, human
# Excerpt: Purified populations of hematopoietic progenitors and precursors are routinarily obtained in our laboratory through purification of […] cells from peripheral blood and culture in serum-free medium with unilineage growth factors. Hematopoietic progenitor cells display different sensitivity to the cytotoxic effect of chemotherapeutic agents depending on their lineage commitment and stage of maturation. […] The protective effects of SCF are achieved by administrating this cytokine before the cytotoxic treatment, during the course of the treatment itself and after the toxic stimulus has been interrupted. […] Importantly, once the toxic stimulus has been removed, SCF-treated cells re-enter the differentiative pathway, maintaining their ability to complete successfully the normal maturation process.
compound,measurement,setting,value
COc1cccc2c1C(=O)c1c(O)c3c(c(O)c1C2=O)C[C@@](O)(C(C)=O)C[C@@H]3O[C@H]1C[C@H](N)[C@H](O)[C@H](C)O1 [Daunorubicin],sensitivity of mature polynucleated megakaryocytic precursors versus day 6 immature precursors,[1],more resistant
CC[C@]1(O)C[C@H]2CN(CCc3c([nH]c4ccccc34)[C@@](C(=O)OC)(c3cc4c(cc3OC)N(C=O)[C@H]3[C@@](O)(C(=O)OC)[C@H](OC(C)=O)[C@]5(CC)C=CCN6CC[C@]43[C@@H]65)C2)C1 [Vincristine],sensitivity of mature polynucleated megakaryocytic precursors versus day 6 immature precursors,[1],more resistant
same,death of early megakaryocytic cells,"[1]; day 6 precursors, Vincristine 0.5 micromolar",100%
same,death of late megakaryocytic cells,"[1]; day 12 precursors, Vincristine 0.5 micromolar",20%
CC[C@@]1(O)C(=O)OCc2c1cc1n(c2=O)Cc2cc3ccccc3nc2-1 [camptothecin],sensitivity to cytotoxic effect of chemotherapeutic agents,"[2]; day 7 immature erythroblasts, 24 hours, 1.5 μg/ml cisplatin or 50 ng/ml camptothecin, saturating Epo",extremely sensitive
same,caspase activation by cytotoxic drug,"[3]; day 7 erythroblasts, 8 hours, 200 ng/ml camptothecin, 3 μg/ml cisplatin or 5 μM etoposide","activated caspase 3, 7 and 8"
same,sensitivity to cytotoxic effect of chemotherapeutic agents,[4],almost completely resistant
same,sensitivity to drug-induced apoptosis,CD34+ progenitors,modest sensitivity
"N.N.[Cl][Pt][Cl] [cisplatin, reference compound]",sensitivity to drug-induced apoptosis,CD34+ progenitors,modest sensitivity
same,death of CD34 positive cells in absence of SCF,"CD34 positive cells; 3 micrograms/mL Cisplatin, proliferating cells (interleukin-3, fms-like tyrosine kinase 3), no SCF",virtually all cells die
COc1cc([C@@H]2c3cc4c(cc3[C@@H](O[C@@H]3O[C@@H]5CO[C@@H](C)O[C@H]5[C@H](O)[C@H]3O)[C@H]3COC(=O)[C@H]23)OCO4)cc(OC)c1O [etoposide],sensitivity of mature polynucleated megakaryocytic precursors versus day 6 immature precursors,[1],more resistant
"SCF: haematopoietic growth factor, 18.6 KD, ligand of c-Kit; human recombinant SCF purchased from Peprotech",protection of erythroblasts from toxic effects of antineoplastic drugs,"[2]; 100 ng/ml SCF from day 5 for 48 hours and during exposure, camptothecin, cisplatin or etoposide",significantly protected
same,proliferative activity after removal of the cytotoxic agent,"day 7 erythroblasts; SCF day 5-9, 3 μg/ml cisplatin 48 hours, washed, fresh medium",regained full proliferative activity
same,proliferation of survived erythroid cells with SCF maintained after drug removal,"day 7 erythroblasts; SCF day 5-21, 3 μg/ml cisplatin 48 hours",high proliferation rate
same,survival to cisplatin treatment,"day 7 erythroblasts; preincubated two days with 100 ng/ml SCF, 3 μg/ml cisplatin for 48 hours",enhanced survival
same,expression of anti-apoptotic genes of the Bcl-2 family and Notch family,[5],upregulation
same,growth of erythroid colonies,[6],significant stimulatory effect
same,percentage of granulo-monocytic colonies,[6],did not significantly increase
same,protection of megakaryocytic cells from toxic effects of antineoplastic drugs,"[1]; 100 ng/ml SCF from day 4 for 48 hours and during exposure, Etoposide, Daunorubicin or Vincristine",significantly protected
same,"amount of inactive pro-caspase 3, 7 and 8 versus control erythroblasts","[3]; pretreated two days with SCF, 8 hours camptothecin, cisplatin or etoposide",significantly higher
same,tolerability of administration,[7],generally well tolerated
same,Bcl-2 and Bcl-XL protein levels,Bcl-2 and Bcl-XL,upregulated
same,CD34 positive cells surviving,"CD34 positive cells; 3 micrograms/mL Cisplatin, cells induced to proliferate with interleukin-3 (50 units/mL) and fms-like tyrosine kinase 3 (100 nanograms/mL), treated with SCF",about 50%
same,expansion and clonogenetic output after removal of chemotherapeutic drugs,"CD34 positive cells; SCF-treated cells, clonogenetic assays",able to expand and give rise to all the standard hematopoietic populations
same,protection of CD34 positive cells from cytotoxic activity of chemotherapeutic agents,"CD34 positive cells; in vitro, Cisplatin, Etoposide and Daunorubicin",protects
same,protection from death induced by antineoplastic agents,[8],strong protection
zVAD-fmk [reference compound],effect on chemotherapy-induced erythroblast death,"[2]; zVAD 40 μM, camptothecin, cisplatin or etoposide, 24 hours",abrogated completely
same,effect on drug-induced caspase activation,"[3]; zVAD 40 μM, day 7 erythroblasts, 8 hours",abolished caspase activation
